Results taken from patent US8158670B2 (priority 1996, dated 2012).
Like-named read-outs stand apart in the source and are kept apart here.

Tests used:
[1] = test system: Vascular smooth muscle (BO54) cells; type: cell-based, baboon; conditions: 5 minute exposure
[2] = test system: Vascular smooth muscle (BO54) cells; type: cell-based, baboon; conditions: 5 minute exposure; remark: listed apart in the source
[3] = test system: Vascular smooth muscle cells (BO54); assay: Scratch-migration assay; type: cell-based, baboon; parameters: key to Migration Grade in the Cleared Area of the Well / Migration Grade in an Undisturbed Region of the Well: −=no migration; +1=minimal; +2=mild; +3=moderate; +4=marked (maximum density; limit of cell contact inhibition) migration
Experimental: (§1) Vascular smooth muscle cells (BO54) were derived from explants of baboon aortic smooth muscle, as described in Example 10. The cells were grown in flat bottom, six well tissue culture plates, which hold about 5 ml of medium. The vascular smooth muscle cells were plated at 200,000 cells/well and placed at 37° C. in a humidified 5% CO2 incubator for 18 hours. The wells were then scratched with a sterile portion of a single edge razor blade that was held by clamp or pliers and was brought aseptically into contact with the bottom of the well at a 90° angle. The cells from a small area along the scratch were removed by a sterile cotton tipped applicator while the blade was in contact with the bottom of the well. After incubation, the presence of cells in the “scratched” area is indicative of cell migration across the scratch line.
(§2) Briefly, a stock solution of cytochalasin B (Sigma Chemical Co.) in dimethyl sulfoxide (DMSO) at 1 mg/ml was prepared. Test dilutions of cytochalasin B or control medium were added. Each experiment included two sets of plates:
(§3) A set: Test agent exposure for 1, 3, 6, 8 and 10 days only; and
(§4) B set: Test agent exposure for 1, 3, 6, 8 and 10 days, followed by a seven day recovery time with control medium.
(§5) Both sets of plates were fixed (10% formalin in PBS) and stained (0.02% crystal violet) at the end of the timed exposures. Test concentrations for cytochalasin B were 1, 0.1 and 0.01 μg/ml, and a negative medium control was included. Fresh medium and drug were supplied 3 times per week.
(§6) In this Table, “M” indicates Migration Grade. wherein −=no migration; +1=minimal; +2=mild; +3=moderate; and +4=marked (maximum density; limit of cell contact inhibition) migration of vascular smooth muscle cells into the cleared area adjacent to the scratch. In this Table, “T” denotes a morphological Toxicity Grade, wherein −=no toxicity; +1=minimal; +2=mild; +3=moderate; and +4=marked toxicity. The migration results are expressed as “Grade in the Cleared Area of the Well/Grade in an Undisturbed Region of the Well.” The toxicity values represent a grade for all cells in each well.

[4] = test system: vascular smooth muscle cells of balloon-traumatized arteries; type: in vivo, pig; conditions: relative to a PBS control
[5] = pig, in vivo
[6] = test system: Vascular smooth muscle cells (BO54); assay: Scratch-migration assay; type: cell-based, baboon; parameters: key: −=no toxicity; +1=minimal; +2=mild; +3=moderate; +4=marked toxicity; conditions: Continuous Exposure, 1.0 μg/mL
Experimental: as §1
Briefly, a stock solution of cytochalasin B (Sigma Chemical Co.) in dimethyl sulfoxide (DMSO) at 1 mg/ml was prepared. […]
In this Table, “M” indicates Migration Grade. wherein −=no migration; +1=minimal; +2=mild; +3=moderate; and +4=marked (maximum density; limit of cell contact inhibition) migration of vascular smooth muscle cells into the cleared area adjacent to the scratch. […] The migration results are expressed as “Grade in the Cleared Area of the Well/Grade in an Undisturbed Region of the Well.” The toxicity values represent a grade for all cells in each well.

[7] = test system: Vascular smooth muscle cells (BO54); assay: Scratch-migration assay; type: cell-based, baboon; parameters: key: −=no migration; +1=minimal; +2=mild; +3=moderate; +4=marked (maximum density; limit of cell contact inhibition) migration
Experimental: as §1, §2, §3, §4, §5, §6

[8] = Day 1, Continuous Exposure, 0.01 μg/mL
[9] = Day 1, Continuous Exposure, 0.1 μg/mL
[10] = Day 1, Continuous Exposure, 1.0 μg/mL
[11] = Day 1 exposure, 7-day Recovery Post Exposure, 0.01 μg/mL
[12] = Day 1 exposure, 7-day Recovery Post Exposure, 0.1 μg/mL
[13] = Day 1 exposure, 7-day Recovery Post Exposure, 1.0 μg/mL
[14] = Day 3, Continuous Exposure, 0.01 μg/mL
[15] = Day 3, Continuous Exposure, 0.1 μg/mL
[16] = Day 3, Continuous Exposure, 1.0 μg/mL
[17] = Day 3 exposure, 7-day Recovery Post Exposure, 0.01 μg/mL
[18] = Day 3 exposure, 7-day Recovery Post Exposure, 0.1 μg/mL
[19] = Day 3 exposure, 7-day Recovery Post Exposure, 1.0 μg/mL
[20] = Day 6, Continuous Exposure, 0.01 μg/mL
[21] = Day 6, Continuous Exposure, 0.1 μg/mL
[22] = Day 6, Continuous Exposure, 1.0 μg/mL
[23] = Day 6 exposure, 7-day Recovery Post Exposure, 0.01 μg/mL
[24] = Day 6 exposure, 7-day Recovery Post Exposure, 0.1 μg/mL
[25] = Day 6 exposure, 7-day Recovery Post Exposure, 1.0 μg/mL
[26] = Day 8, Continuous Exposure, 0.01 μg/mL
[27] = Day 8, Continuous Exposure, 0.1 μg/mL
[28] = Day 8, Continuous Exposure, 1.0 μg/mL
[29] = Day 8 exposure, 7-day Recovery Post Exposure, 0.01 μg/mL
[30] = Day 8 exposure, 7-day Recovery Post Exposure, 0.1 μg/mL
[31] = Day 8 exposure, 7-day Recovery Post Exposure, 1.0 μg/mL
[32] = Day 10, Continuous Exposure, 0.01 μg/mL
[33] = Day 10, Continuous Exposure, 0.1 μg/mL
[34] = Day 10, Continuous Exposure, 1.0 μg/mL
[35] = Day 10 exposure, 7-day Recovery Post Exposure, 0.01 μg/mL
[36] = Day 10 exposure, 7-day Recovery Post Exposure, 0.1 μg/mL
[37] = Day 10 exposure, 7-day Recovery Post Exposure, 1.0 μg/mL

C=C1[C@@H](C)[C@H]2[C@H](Cc3ccccc3)NC(=O)[C@]23OC(=O)/C=C/[C@H](O)CCC[C@@H](C)C/C=C/[C@H]3[C@@H]1O [cytochalasin B]
minimum effective dose (MED) [1]: 10 µg/mL
minimum effective dose (MED) [2]: 10 µg/mL
ability to migrate following removal of the therapeutic agent ([3]; 0.1 μg/ml, even after 10 days of continuous exposure): +3 to +4
Migration Grade in an Undisturbed Region of the Well [3, 8]: +3
Migration Grade in the Cleared Area of the Well [3, 8]: +1
Migration Grade in an Undisturbed Region of the Well [3, 9]: +3
Migration Grade in the Cleared Area of the Well [3, 9]: +1
Migration Grade in an Undisturbed Region of the Well [3, 10]: +2
Migration Grade in the Cleared Area of the Well [3, 10]: −
Migration Grade in an Undisturbed Region of the Well [3, 11]: −4
Migration Grade in the Cleared Area of the Well [3, 11]: +3
Migration Grade in an Undisturbed Region of the Well [3, 12]: +4
Migration Grade in the Cleared Area of the Well [3, 12]: +3
Migration Grade in an Undisturbed Region of the Well [3, 13]: +3
Migration Grade in the Cleared Area of the Well [3, 13]: +2
Migration Grade in an Undisturbed Region of the Well [3, 14]: +4
Migration Grade in the Cleared Area of the Well [3, 14]: +3
Migration Grade in an Undisturbed Region of the Well [3, 15]: +4
Migration Grade in the Cleared Area of the Well [3, 15]: +1
Migration Grade in an Undisturbed Region of the Well [3, 16]: +2
Migration Grade in the Cleared Area of the Well [3, 16]: −
Migration Grade in an Undisturbed Region of the Well [3, 17]: −4
Migration Grade in the Cleared Area of the Well [3, 17]: +3
Migration Grade in an Undisturbed Region of the Well [3, 18]: +4
Migration Grade in the Cleared Area of the Well [3, 18]: +3
Migration Grade in an Undisturbed Region of the Well [3, 19]: +3
Migration Grade in the Cleared Area of the Well [3, 19]: +2
Migration Grade in an Undisturbed Region of the Well [3, 20]: +4
Migration Grade in the Cleared Area of the Well [3, 20]: +3
Migration Grade in an Undisturbed Region of the Well [3, 21]: +4
Migration Grade in the Cleared Area of the Well [3, 21]: +2
Migration Grade in an Undisturbed Region of the Well [3, 22]: +2
Migration Grade in the Cleared Area of the Well [3, 22]: −
Migration Grade in an Undisturbed Region of the Well [3, 23]: +4/+4
Migration Grade in the Cleared Area of the Well [3, 23]: +4/+4
Migration Grade in an Undisturbed Region of the Well [3, 24]: +4
Migration Grade in the Cleared Area of the Well [3, 24]: +3
Migration Grade in an Undisturbed Region of the Well [3, 25]: +3
Migration Grade in the Cleared Area of the Well [3, 25]: +2
Migration Grade in an Undisturbed Region of the Well [3, 26]: +4
Migration Grade in the Cleared Area of the Well [3, 26]: +3
Migration Grade in an Undisturbed Region of the Well [3, 27]: +4
Migration Grade in the Cleared Area of the Well [3, 27]: +2
Migration Grade in an Undisturbed Region of the Well [3, 28]: +2
Migration Grade in the Cleared Area of the Well [3, 28]: −
Migration Grade in an Undisturbed Region of the Well [3, 29]: +4/+4
Migration Grade in the Cleared Area of the Well [3, 29]: +4/+4
Migration Grade in an Undisturbed Region of the Well [3, 30]: +4
Migration Grade in the Cleared Area of the Well [3, 30]: +3
Migration Grade in an Undisturbed Region of the Well [3, 31]: +3
Migration Grade in the Cleared Area of the Well [3, 31]: +2
Migration Grade in an Undisturbed Region of the Well [3, 32]: +4
Migration Grade in the Cleared Area of the Well [3, 32]: +3
Migration Grade in an Undisturbed Region of the Well [3, 33]: +4
Migration Grade in the Cleared Area of the Well [3, 33]: +2
Migration Grade in an Undisturbed Region of the Well [3, 34]: +2
Migration Grade in the Cleared Area of the Well [3, 34]: −
Migration Grade in an Undisturbed Region of the Well [3, 35]: +4/+4
Migration Grade in the Cleared Area of the Well [3, 35]: +4/+4
Migration Grade in an Undisturbed Region of the Well [3, 36]: +4/+4
Migration Grade in the Cleared Area of the Well [3, 36]: +4/+4
Migration Grade in an Undisturbed Region of the Well [3, 37]: +3
Migration Grade in the Cleared Area of the Well [3, 37]: +2
migration into the cleared area adjacent to the scratch ([3]; dose of 0.1 μg/ml): +1 to +2
time to resume migration after cells clear the agent ([3]; in vitro data): ≤ 24 h
BRDU uptake (cell proliferation) [4]: inhibited BRDU uptake (i.e., cell proliferation) without killing the vascular smooth muscle cells
incidence of mural microthrombi [5]: decreased
lumen area of test region versus normal control segment of the same artery [5]: approximately two times as large
luminal area versus other test agents or controls [5]: larger luminal area
percent change in treated vs. normal luminal area (increase) [5]: ≈ 140%
toxicity to the vascular smooth muscle cells [5]: appeared to be toxic to the vascular smooth muscle cells
± percent change in treated vs. normal luminal area [5]: ≈ 20%
morphological Toxicity Grade ([6]; Day 8): +4
morphological Toxicity Grade ([6]; Day 10): +4
morphological Toxicity Grade [7, 16]: +3
morphological Toxicity Grade [7, 19]: +1
morphological Toxicity Grade [7, 21]: +1
morphological Toxicity Grade [7, 25]: +3
morphological Toxicity Grade [7, 27]: +1
morphological Toxicity Grade [7, 31]: +3
morphological Toxicity Grade [7, 33]: +1
morphological Toxicity Grade [7, 37]: +3
